Assays:
[1] = test system: MCF7 cells; assay: Apoptotic cell death by annexin V labeling; type: cell-based, human; conditions: MCF7, single agent (α-MT 2.5 mM or 3-MA 10 mM), 48 h
Procedure: (§1) FIGS. 9A to 9D. Influence of α-MT on mTOR activity In FIG. 9A, MCF7 and MB231 cells were treated without or with α-MT (2.5 mM) for 24 h, 48 h, or 72 h, and then the cell lysates were used for western blot. Influence of α-MT with or without 3-MA on cell death. In FIG. 9B, MCF7, MB231, and MCF10A cells were treated for 48 h without or with α-MT (2.5 mM), 3-MA (10 mM), or α-MT (2.5 mM) plus 3-MA (10 mM), and then analyzed for cell death by propidium iodide (PI) staining and FACS-based cell cycle analysis. In FIG. 9C, MCF7 cells were treated for 48 h without or with α-MT (2.5 mM), 3-MA (10 mM), or α-MT (2.5 mM) plus 3-MA (10 mM), and then analyzed for apoptotic cell death by annexin V labeling. In FIG. 9D, MCF7 and MB231 cells were treated without or with 2.5 mM α-MT for 24 h, 48 h, or 72 h. Cell lysates were then used for western blot analysis of lamin A degradation product using an antibody that recognizes specifically the proteolytic cleavage product. β-Actin was used as an internal control.
Apoptosis assay. Fluorescence-activated cell sorting (FACS) was used to monitor cell death. MCF7 cells were treated with or without α-MT, 3-MA, or α-MT plus 3-MA. Control and treated cells were then fixed in 50% ethanol, treated with 0.1% sodium citrate, 1 mg/ml RNase A, and 50 μg/ml propidium iodide, and then subjected to FACS analysis (FACS Caliber, Becton Dickinson). FITC-labeled annexin V was used to differentiate apoptotic cell death from necrotic cell death.

[2] = test system: MCF7 cells; assay: Cell death by propidium iodide staining and FACS cell cycle analysis; type: cell-based, human; conditions: 48 h
[3] = test system: MB231 cells; assay: Xenograft in nude mice, tumor growth; type: in vivo, Balb/c nude mice; conditions: MB231 (ER-negative), α-MT in drinking water 2 mg/ml
Procedure: (§2) FIGS. 10A to 10D. In vivo efficacy of α-MT in the treatment of ER-positive breast cancer. ZR75.1 (FIG. 10A), MCF7 (FIG. 10B), and MB-231 (FIG. 10C) cells were injected subcutaneously (sc) into Balb/c nude mice (10×10^6 cells per injection site). For MCF7 cells, slow-releasing estrogen pellets were implanted to support the tumor growth. For each cell line, the control group received water with sucrose and the treatment group received α-MT (2 mg/ml) in water with sucrose. Tumor size was measured periodically. NS, not statistically significant (p>0.05); *, p<0.005; two-tailed unpaired Student's t test. In FIG. 10D, Balb/c nude mice were divided into two groups; the control group received water with sucrose and the treatment group received α-MT (2 mg/ml) in water with sucrose for 2 weeks. Mice were then bled and α-MT in plasma was determined by HPLC. Xenograft in nude mice. Human breast cancer cells (ZR75.1, MCF7, and MB231) were injected s.c. close to the lower mammary gland on the right side of Balb/c nude mice (10×10^6 cells per injection site). Only for MCF7 cells, slow-releasing estrogen pellets were implanted to support the tumor growth. Implantation of estrogen pellets was done as follows. […] Tumor size in control and treatment groups was measured periodically by caliper and […] was calculated using the formula (width^2×length)/2.

[4] = test system: ZR75.1 cells; assay: Xenograft in nude mice, tumor growth; type: in vivo, Balb/c nude mice; conditions: ZR75.1 (ER-positive), α-MT in drinking water 2 mg/ml
Procedure: as §2

[5] = test system: MB231 cells; assay: ASNS and CHOP mRNA by RT-PCR as readout for amino acid deprivation; type: cell-based, human; conditions: SLC6A14-negative MB231, α-MT 2.5 mM, 24, 48 or 72 h
Procedure: (§3) FIGS. 6A to 6C. Effects of SLC6A14 blockade with α-MT in breast cancer cells. In FIG. 6A, MCF10A (a non-malignant mammary epithelial cell line), MCF7 (an ER-positive breast cancer cell line), and MB231 (an ER-negative breast cancer cell line) cells were treated with or without 2.5 mM α-MT for 24, 48, or 72 h and then used for analysis of asparagine synthetase (ASNS) and CHOP mRNA levels. In FIG. 6B, MCF7, MB231 and MCF10A cells were treated with or without 2.5 mM α-MT for 48 h and then used for immunocytochemical analysis of the constitutively expressed LC-3. In FIG. 6C, MCF7 cells were treated with (“b” and “c”) or without (“a”) α-MT (2.5 mM) for 48 h and then used for electron microscopy. Arrows indicate sequestration of cytoplasm and organelles in pre-autophagosomes and autophagosome, and the asterisk indicates condensed chromatin. N, nucleus.
(§4) RT-PCR. Total RNA was isolated using TRIZOL™ (Invitrogen). 2 μg of RNA was reverse transcribed using the GeneAmp PCR System (Applied Biosystems, Branchburg, N.J.). PCR reaction was performed under optimal conditions specific for each of the primer pairs. GAPDH (glyceraldehyde-3-phosphate dehydrogenase) or HPRT1 (hypoxanthine/guanine phosphoribosyl transferase-1) were used as internal controls. PCR products were size-fractionated on agarose gel, stained with ethidium bromide and imaged using Alpha Imager (Santa Clara, Calif.). […]

[6] = test system: MCF10A cells; assay: as above; type: cell-based, human; conditions: SLC6A14-negative MCF10A, α-MT 2.5 mM, 24, 48 or 72 h
Procedure: as §3, §4

[7] = test system: mTOR in MCF7 cells; assay: mTOR activity by western blot (phosphorylation of S6 and S6 kinase); type: cell-based, human; conditions: MCF7, α-MT 2.5 mM, 24, 48 or 72 h
Procedure: as §1

[8] = test system: mTOR in SLC6A14-negative cells (MB231); assay: as above; type: cell-based, human; conditions: α-MT 2.5 mM, 24, 48 or 72 h
Procedure: as §1

[9] = test system: MCF7 cells; assay: Xenograft in nude mice with estrogen pellets, tumor growth; type: in vivo, Balb/c nude mice; conditions: MCF7 (ER-positive) in the presence of estrogen administration, α-MT in drinking water 2 mg/ml
Procedure: as §2

CC(N)(Cc1c[nH]c2ccccc12)C(=O)O (racemic) [α-MT, α-methyl-DL-tryptophan]
apoptotic cell death by annexin V labeling [1]: induced apoptotic cell death | cell death (propidium iodide, cell cycle analysis) ([2]; MCF7, α-MT 2.5 mM alone): significant cell death | cell death (propidium iodide, cell cycle analysis) ([2]; MCF7, α-MT 2.5 mM with cotreatment 3-MA 10 mM): further potentiated | tumor growth in xenograft [3]: did not affect the growth | tumor growth in xenograft [4]: reduced the growth | levels of asparagine synthetase mRNA and CHOP mRNA [5]: not | levels of asparagine synthetase mRNA and CHOP mRNA [6]: not | mTOR inhibition: phosphorylation of S6 and S6 kinase [7]: decreased phosphorylation | mTOR activity [8]: not affected | tumor growth in xenograft [9]: did not affect the growth
